Common to all, as to assay type: in vivo
In one assay the test system is Cochliobolus sativus. Kind of assay: Spot Blotch of Wheat (COCHSA), whole-plant fungicide test. Conditions: Bipolaris sorokiniana, foliar, 24 h, 200 ppm on foliage, one-day protectant test, read-out: COCHSA percent control of disease. As for the experimental part: The activity of the compounds as effective fungicides was determined by applying the compounds to plants and observing control of fungal disease. The compounds were formulated at 200 ppm in 10 vol. percent acetone plus 90 vol. percent Triton X water (deionized water 99.99 wt. percent+0.01 wt. percent Triton X100), giving a “formulated test compound.” In a few cases, compounds were formulated at 100, 75 or 8.3 ppm rather than 200 ppm in 10 vol. percent acetone plus 90 vol. percent Triton X water (deionized water 99.99 wt. percent+0.01 wt. percent Triton X100), giving a ‘formulated test compound’. The compounds were tested for ability to control plant diseases in a 1-day protectant test (1DP) or a 2-day curative test (2DC). Formulated test compounds were applied to plants using a turn table sprayer fitted with two opposing air atomization nozzles which delivered approximately 1500 L/ha of spray volume. Plants were inoculated with spores of the fungus the next day (1DP), then incubated in an environment conducive to disease development. In a few cases, the compounds were tested for ability to control plant disease in a two-day curative test. Plants were inoculated with spores of the fungus two days prior to compound application, and incubated in an environment conducive to disease development both before and after compound application (2DC). For all types of tests, disease severity was evaluated 4 to 28 days later, depending on the speed of disease development.
Each pot contained 3-8 seedlings. These plants were sprayed until wet with the formulated test compound. On the following day, the leaves were inoculated with an aqueous spore suspension of Cochliobolus sativus and the plants were kept in high humidity for one to two days to permit spores to germinate and infect the leaf. The plants were then transferred to a greenhouse until disease developed on untreated control plants.
The following table presents the activity of typical compounds of the present invention when evaluated in these experiments. The effectiveness of the test compounds in controlling disease was determined by assessing the severity of disease on treated plants, then converting the severity to percent control based on the level of disease on untreated, inoculated plants.
TABLE 4: Activity of compounds as fungicides. Data are the level at which the given disease was controlled when the given compound was applied to the foliage of the plant at 200 ppm. In a few cases (noted in the table) the compound was applied to the plant at 100, 75 or 8.3 ppm. The plant was inoculated with the fungus one day after treatment. In a few cases (noted in the table) the plant was inoculated with the fungus two days before treatment.

For assay [1], the system named is Puccinia recondita tritici. The assay can be described thus: Leaf Rust of Wheat (PUCCRT), whole-plant fungicide test. Conditions: Puccinia recondita, 24 h, one-day protectant test, read-out: PUCCRT percent control of disease; for pest or weed control at 200 ppm: foliar, 200 ppm on foliage; for pest or weed control at 100 ppm: 100 ppm (footnote a).
The next assay deals with Leptosphaeria nodorum. Kind of assay: Glume Blotch of Wheat (LEPTNO), whole-plant fungicide test. Conditions: Parastagonospora nodorum, foliar, 24 h, 200 ppm on foliage, one-day protectant test, read-out: LEPTNO percent control of disease.
For a further assay, the system named is Septoria tritici. Kind of assay: Speckled Leaf Blotch of Wheat (SEPTTR), whole-plant fungicide test. Conditions: Zymoseptoria tritici, foliar, 24 h, 200 ppm on foliage, one-day protectant test, read-out: SEPTTR percent control of disease.
For another assay, the system named is Colletotricum lagenarium. The assay can be described thus: Cucumber Anthracnose (COLLLA), whole-plant fungicide test. Conditions: Cucumis sativus, 24 h, one-day protectant test, read-out: COLLLA percent control of disease; for pest or weed control at 200 ppm: foliar, 200 ppm on foliage; for pest or weed control at 100 ppm: 100 ppm (footnote a).
The test system of the next assay is Phytophthora infestans. Kind of assay: whole plant or invertebrate. Conditions: Phytophthora infestans, in Solanum lycopersicum, 24 h; for pest or weed control at 200 ppm: foliar, read-out: PHYTIN percent control of disease, 200 ppm on foliage, tomato, one-day protectant test; for pest or weed control at 100 ppm: read-out: PHYTIN percent control of disease, 100 ppm (footnote a), tomato, one-day protectant test.

The next assay has as its system Magnaporthe grisea. Kind of assay: whole plant or invertebrate. Conditions: Pyricularia oryzae, in Oryza sativa, foliar, 24 h, read-out: PYRIOR percent control of disease, 200 ppm on foliage, rice, one-day protectant test.
For another assay, the system named is Erysiphe cichoracaerum. The assay can be described thus: Cucumber Powdery Mildew (ERYSCI), whole-plant fungicide test. Conditions: Erysiphe, foliar, 24 h, 200 ppm on foliage, one-day protectant test, read-out: ERYSCI percent control of disease.
Assay [2] concerns Erysiphe graminis f. sp. tritici. Kind of assay: Powdery Mildew of Wheat (ERYSGT), whole-plant fungicide test. Conditions: Blumeria graminis, 24 h, 100 ppm (footnote a), one-day protectant test, read-out: ERYSGT percent control of disease.

SMILES strings stand for the structures.

As to `CCOC(=O)c1sc2ncnc(NC(C)c3ccc(OC)cc3)c2c1OC` (centres unmarked) [Compound 51, 5-Methoxy-4-[1-(4-methoxyphenyl)ethylamino]thieno[2,3-d]pyrimidine-6-carboxylic Acid Ethyl Ester], the pest or weed control at 200 ppm (with Cochliobolus sativus; in assay [1]; in the assay with Leptosphaeria nodorum; in the assay with Septoria tritici) was 0 to 49% in each case.

Consider `COc1ccc(OCC(C)Nc2ncnc3scc(Cl)c23)cn1` (centres unmarked) [Compound 53], for which the pest or weed control at 200 ppm was in the range of 50 to 79% in the assay with Cochliobolus sativus; 0 to 49% in the assay with Colletotricum lagenarium; 80 to 100% in assay [1]; 0 to 49% in the assay on Leptosphaeria nodorum; 0 to 49% with Phytophthora infestans; 50 to 79% in the assay on Magnaporthe grisea. In the assay with Septoria tritici, the pest or weed control at 200 ppm lay within 50 to 79%.

In the case of `CC(Nc1ncnc2scc(Cl)c12)c1cnc(OCC(F)(F)F)nc1` (centres unmarked) [Compound 54], the pest or weed control at 200 ppm in the assay with Cochliobolus sativus fell in the range of 0 to 49%; in the assay on Colletotricum lagenarium, 0 to 49%; in [1], 80 to 100%; with Leptosphaeria nodorum, 50 to 79%; with Phytophthora infestans it was 80 to 100%; in the assay on Magnaporthe grisea it was 80 to 100%. Further, the pest or weed control at 200 ppm in the assay on Septoria tritici was 50 to 79%.

In the case of `COc1ncc(C(C)Nc2ncnc3scc(Cl)c23)cn1` (centres unmarked) [Compound 55], the pest or weed control at 200 ppm in the assay on Cochliobolus sativus lay in the range of 0 to 49%; with Colletotricum lagenarium it was 0 to 49%; in [1] it was 80 to 100%; in the assay with Leptosphaeria nodorum it was 50 to 79%; in the assay with Phytophthora infestans it was 80 to 100%; with Magnaporthe grisea, 50 to 79%. In addition, the pest or weed control at 200 ppm in the assay with Septoria tritici lay within 80 to 100%.

`Clc1csc2ncnc(N3CCCC3c3cccnc3)c12` (centres unmarked) [Compound 56]: the pest or weed control at 200 ppm in the assay with Cochliobolus sativus lay in the range of 0 to 49%; with Colletotricum lagenarium, 0 to 49%; in [1] it was 50 to 79%; with Leptosphaeria nodorum, 0 to 49%; in the assay with Phytophthora infestans, 0 to 49%; with Erysiphe cichoracaerum, 0 to 49%. Further, in the assay with Magnaporthe grisea, the pest or weed control at 200 ppm was in the range of 0 to 49%.

On to `CC(COc1cccc(Cl)n1)Nc1ncnc2scc(Cl)c12` (centres unmarked) [Compound 57], for which the pest or weed control at 200 ppm with Cochliobolus sativus lay in the range of 0 to 49%; in the assay on Colletotricum lagenarium it was 0 to 49%; in assay [1], 80 to 100%; in the assay with Leptosphaeria nodorum, 0 to 49%; in the assay with Phytophthora infestans, 0 to 49%; in the assay on Erysiphe cichoracaerum, 50 to 79%. Besides, the pest or weed control at 200 ppm in the assay with Magnaporthe grisea and with Septoria tritici was 80 to 100% each time.

Regarding `CC(Nc1ncnc2scc(Cl)c12)c1ccc(NC=O)cc1` (centres unmarked) [Compound 58], the pest or weed control at 200 ppm lay in the range of 0 to 49% in the assay on Cochliobolus sativus; 50 to 79% with Colletotricum lagenarium; 80 to 100% in assay [1]; 0 to 49% in the assay on Leptosphaeria nodorum; 0 to 49% in the assay on Phytophthora infestans; 0 to 49% with Erysiphe cichoracaerum. The pest or weed control at 200 ppm in the assay on Magnaporthe grisea is 80 to 100%; in the assay with Septoria tritici it was 50 to 79%.

As for `CC(=O)Nc1ccc(C(C)Nc2ncnc3scc(Cl)c23)cc1` (centres unmarked) [Compound 59], the pest or weed control at 200 ppm in the assay on Cochliobolus sativus was 0 to 49%; in the assay on Colletotricum lagenarium, 0 to 49%; in assay [1], 80 to 100%; in the assay with Leptosphaeria nodorum, 0 to 49%; with Phytophthora infestans, 0 to 49%; with Erysiphe cichoracaerum it was 50 to 79%. In addition, the results for the pest or weed control at 200 ppm in the assay on Magnaporthe grisea and with Septoria tritici were 80 to 100% and 50 to 79%, respectively.

Turning to `CC(Nc1ncnc2scc(Br)c12)c1ccc(F)nc1` (centres unmarked) [Compound 60], the pest or weed control at 200 ppm in the assay with Cochliobolus sativus lay within 0 to 49%; in the assay with Colletotricum lagenarium, 80 to 100%; in assay [1] it was 80 to 100%; in the assay on Leptosphaeria nodorum, 0 to 49%; in the assay with Phytophthora infestans it was 0 to 49%; in the assay on Erysiphe cichoracaerum, 80 to 100%. For the same compound, the values for the pest or weed control at 200 ppm in the assay on Magnaporthe grisea and in the assay on Septoria tritici were 80 to 100% and 0 to 49%, respectively.

With `CC(Nc1ncnc2scc(Cl)c12)c1ccc2c(c1)OCO2` (centres unmarked) [Compound 61], the pest or weed control at 200 ppm fell in the range of 50 to 79% in the assay with Cochliobolus sativus; 0 to 49% in the assay on Colletotricum lagenarium; 80 to 100% in [1]; 80 to 100% in the assay with Leptosphaeria nodorum; 0 to 49% in the assay with Phytophthora infestans; 80 to 100% in the assay on Erysiphe cichoracaerum. The pest or weed control at 200 ppm in the assay on Magnaporthe grisea and in the assay on Septoria tritici was 50 to 79% throughout.

With `COCC(Nc1ncnc2scc(Cl)c12)c1ccccc1` (centres unmarked) [Compound 62], the pest or weed control at 200 ppm in the assay on Cochliobolus sativus was in the range of 0 to 49%; in the assay with Colletotricum lagenarium it was 0 to 49%; in [1], 80 to 100%; in the assay on Leptosphaeria nodorum, 0 to 49%; in the assay on Phytophthora infestans it was 0 to 49%; in the assay on Erysiphe cichoracaerum, 80 to 100%. Moreover, the figures for the pest or weed control at 200 ppm with Magnaporthe grisea and with Septoria tritici were 80 to 100% and 50 to 79%, respectively.

As to `COc1ccc(C(C)Nc2ncnc3scc(Cl)c23)cc1C` (centres unmarked) [Compound 63], the pest or weed control at 200 ppm with Colletotricum lagenarium fell in the range of 0 to 49%; in [1], 80 to 100%; in the assay on Leptosphaeria nodorum, 50 to 79%; in the assay on Phytophthora infestans it was 50 to 79%; in the assay on Erysiphe cichoracaerum, 80 to 100%; in the assay on Magnaporthe grisea it was 80 to 100%. In addition, the pest or weed control at 100 ppm in [2] lay in the range of 80 to 100%.

Regarding `Clc1ccc(CCNc2ncnc3scc(Cl)c23)cn1` [Compound 65], the pest or weed control at 200 ppm with Colletotricum lagenarium lay in the range of 0 to 49%; in [1] it was 80 to 100%; in the assay with Leptosphaeria nodorum, 0 to 49%; with Phytophthora infestans it was 80 to 100%; with Erysiphe cichoracaerum it was 80 to 100%; in the assay on Magnaporthe grisea, 0 to 49%. In assay [2], the pest or weed control at 100 ppm was in the range of 0 to 49%.

`COc1ccc(C(C)Nc2ncnc3scc(Cl)c23)cc1F` (centres unmarked) [Compound 66]: the pest or weed control at 200 ppm lay within 0 to 49% with Colletotricum lagenarium; 80 to 100% in assay [1]; 0 to 49% in the assay on Leptosphaeria nodorum; 50 to 79% in the assay with Phytophthora infestans; 80 to 100% in the assay with Erysiphe cichoracaerum; 80 to 100% in the assay on Magnaporthe grisea. The pest or weed control at 100 ppm in [2] fell in the range of 80 to 100%.

Consider `COc1ccc(C(C)Nc2ncnc3scc(F)c23)cc1` (centres unmarked) [Compound 76, (5-Fluorothieno[2,3-d]pyrimidin-4-yl)-[1-(4-methoxyphenyl)ethyl]amine], for which the pest or weed control at 100 ppm lay in the range of 50 to 79% in the assay with Colletotricum lagenarium, 0 to 49% in [2], 80 to 100% in [1] and 80 to 100% in the assay with Phytophthora infestans.

In the case of `COc1ccc(C(C)Nc2ncnc3scc(F)c23)cn1` (centres unmarked) [Compound 77], the pest or weed control at 100 ppm in the assay on Colletotricum lagenarium was in the range of 50 to 79%; in [2], 0 to 49%; in [1], 80 to 100%; in the assay on Phytophthora infestans, 80 to 100%.

As for `CC(Nc1ncnc2scc(F)c12)c1ccc(OCC(F)(F)F)cc1` (centres unmarked) [Compound 78], the pest or weed control at 100 ppm (in the assay on Colletotricum lagenarium; in assay [2]; in assay [1]; in the assay on Phytophthora infestans) was 80 to 100% each time.

These data come from patent publication US8008487B2, “Substituted thieno[2,3-D]pyrimidines as fungicides” (priority 2004, dated 2011).
